The source of these data is patent publication US20210255193A1, “LYSINE REACTIVE PROBES AND USES THEREOF” (The Scripps Research Institute, priority 2017, published 2021).

For assay [1], the target named is T1, STRN3 Striatin-3 (Homo sapiens, UniProt Q13033).
T1 construct: isoTOP-ABPP experiments performed in cell lysates (in vitro); endogenous in cells; host or cells: soluble proteome of human cancer cell lines (MDA-MB-231, Ramos, Jurkat)
T1 sequence (Q13033 1-797): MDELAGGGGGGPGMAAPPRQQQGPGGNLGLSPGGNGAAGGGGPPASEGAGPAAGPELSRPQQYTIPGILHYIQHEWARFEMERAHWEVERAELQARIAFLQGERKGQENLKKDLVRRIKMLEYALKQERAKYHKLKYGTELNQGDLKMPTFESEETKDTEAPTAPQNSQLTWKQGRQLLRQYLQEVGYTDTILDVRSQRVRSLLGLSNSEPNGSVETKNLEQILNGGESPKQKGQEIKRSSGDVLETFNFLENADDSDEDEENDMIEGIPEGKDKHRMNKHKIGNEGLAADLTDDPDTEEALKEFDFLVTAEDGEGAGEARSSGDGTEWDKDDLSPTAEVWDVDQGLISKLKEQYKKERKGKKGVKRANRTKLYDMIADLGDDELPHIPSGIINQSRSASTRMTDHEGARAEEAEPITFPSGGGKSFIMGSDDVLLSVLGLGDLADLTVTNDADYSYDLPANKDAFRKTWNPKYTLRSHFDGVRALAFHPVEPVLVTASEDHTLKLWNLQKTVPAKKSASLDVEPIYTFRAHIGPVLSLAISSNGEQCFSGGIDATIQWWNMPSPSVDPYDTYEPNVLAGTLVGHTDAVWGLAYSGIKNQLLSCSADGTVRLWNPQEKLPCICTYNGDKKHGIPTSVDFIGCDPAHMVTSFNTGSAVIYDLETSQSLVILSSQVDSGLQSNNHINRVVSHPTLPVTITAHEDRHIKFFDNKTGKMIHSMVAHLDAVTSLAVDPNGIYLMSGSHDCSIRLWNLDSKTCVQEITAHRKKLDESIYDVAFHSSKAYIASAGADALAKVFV
In words: competitive isoTOP-ABPP. Format: binding. The settings on record: 50 uM, in vitro; for R value (DMSO/fragment) for probe 1 labeling: Q13033_K755; for R value (DMSO/fragment) for probe 1 labeling / isoTOP-ABPP reactivity ratio at lysine Q13033_K755: 231 sol; for isoTOP-ABPP ratio (R) at liganded lysine Q13033_K755: sol, 231. The procedure, abridged:
(§1)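 Probe: STP-alkyne, 0.1 mM, 1 h RT, after fragment pretreatment of lysate (esters 50 μM; guanidinylators 100 μM). Tags: light = compound, heavy = DMSO, via CuAAC. Replicates averaged if SD <60% of mean; otherwise lowest ratio used when any R <4.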

Assay [2] has as its target T2, LMNA Prelamin-A/C (Homo sapiens, UniProt P02545).
T2 construct: isoTOP-ABPP experiments performed in cell lysates (in vitro); endogenous in cells; host or cells: MDA-MB-231 soluble lysate
T2 sequence (P02545 1-664): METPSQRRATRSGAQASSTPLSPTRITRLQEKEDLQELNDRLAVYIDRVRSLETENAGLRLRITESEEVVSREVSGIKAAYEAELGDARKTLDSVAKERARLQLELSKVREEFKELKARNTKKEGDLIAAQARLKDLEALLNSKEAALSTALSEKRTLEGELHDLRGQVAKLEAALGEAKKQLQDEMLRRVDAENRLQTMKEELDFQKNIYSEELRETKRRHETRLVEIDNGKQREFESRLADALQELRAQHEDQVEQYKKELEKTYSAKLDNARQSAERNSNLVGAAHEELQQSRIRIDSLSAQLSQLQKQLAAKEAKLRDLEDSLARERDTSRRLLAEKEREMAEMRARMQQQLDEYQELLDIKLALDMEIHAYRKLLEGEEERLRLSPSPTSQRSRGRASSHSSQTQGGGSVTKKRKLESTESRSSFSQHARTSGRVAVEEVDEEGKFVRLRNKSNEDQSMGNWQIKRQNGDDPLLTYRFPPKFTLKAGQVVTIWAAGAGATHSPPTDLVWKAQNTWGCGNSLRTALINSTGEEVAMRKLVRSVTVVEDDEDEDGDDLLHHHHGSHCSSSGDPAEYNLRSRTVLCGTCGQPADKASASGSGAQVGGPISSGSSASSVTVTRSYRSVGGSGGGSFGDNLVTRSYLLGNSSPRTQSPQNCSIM
In words: competitive isoTOP-ABPP. The settings on record: 50 uM, in vitro; for R value (DMSO/fragment) for probe 1 labeling: P02545_K135; for R value (DMSO/fragment) for probe 1 labeling / isoTOP-ABPP reactivity ratio at lysine P02545_K135: 231 sol; for isoTOP-ABPP ratio (R) at liganded lysine P02545_K135: sol, 231. Format: binding. The procedure, abridged: as §1

Each structure is given as a SMILES string.

On to `O=C(CCc1cn(-c2ccccc2)nc1-c1ccccc1)Oc1c(F)c(F)c(F)c(F)c1F` [fragment 19, Pentafluorophenyl 3-(1,3-diphenyl-1H-pyrazol-4-yl)propanoate], for which the “R value (DMSO/fragment) for probe 1 labeling” value (“R value (DMSO/fragment)” below) in assay [1] was found to be 0.9; in assay [2], 1.1.
For the molecule `O=C(Oc1c(F)c(F)c(F)c(F)c1F)C(c1ccccc1)c1ccccc1` [fragment 20, Pentafluorophenyl 2,2-diphenylacetate], the “R value (DMSO/fragment)” value in assay [1] amounted to 0.9; in assay [2], 1.0.
Turning to `O=C(Oc1c(F)c(F)c(F)c(F)c1F)c1cc(C(F)(F)F)cc(C(F)(F)F)c1` [fragment 21, Pentafluorophenyl 3,5-bis(trifluoromethyl)benzoate], the “R value (DMSO/fragment)” value in assay [1] was 0.9; in assay [2], 1.0.
As for `Cn1cc(CC(=O)Oc2c(F)c(F)c(F)c(F)c2F)c2ccccc21` [fragment 22, Pentafluorophenyl 2-(1-methyl-1H-indol-3-yl)acetate], the “R value (DMSO/fragment)” value in assay [1] and in assay [2] was 1.0 throughout.
In the case of `COc1cc(CCC(=O)Oc2c(F)c(F)c(F)c(F)c2F)cc(OC)c1OC` [fragment 23, Pentafluorophenyl 3-(3,4,5-trimethoxyphenyl)propanoate], the “R value (DMSO/fragment)” value was found to be 1.2 in assay [1] and 0.9 in assay [2].
Take `O=C(Oc1c(F)c(F)c(F)c(F)c1F)C1CCN(C(=O)OCc2ccccc2)CC1` [fragment 24, 1-Benzyl 4-(pentafluorophenyl) piperidine-1,4-dicarboxylate]: the “isoTOP-ABPP reactivity ratio at lysine Q13033_K755” value in assay [1] worked out at 1.1.
`O=C(Oc1c(F)c(F)c(F)c(F)c1F)c1ccc2ccccc2n1` [fragment 25, Pentafluorophenyl quinoline-2-carboxylate]: the “isoTOP-ABPP reactivity ratio at lysine Q13033_K755” value in assay [1] was found to be 1.0. In addition, the “isoTOP-ABPP reactivity ratio at lysine P02545_K135” value in assay [2] is given as 0.9.
In the case of `O=C(CCc1coc2cc(F)ccc2c1=O)Oc1c(F)c(F)c(F)c(F)c1F` [fragment 26, Pentafluorophenyl 3-(7-fluoro-4-oxo-4H-chromen-3-yl)propanoate], in assay [1], the “isoTOP-ABPP reactivity ratio at lysine Q13033_K755” value was 1.0.
In the case of `O=C(CN1C(=O)c2ccccc2C1=O)Oc1c(F)c(F)c(F)c(F)c1F` [fragment 27, Pentafluorophenyl 2-(1,3-dioxoisoindolin-2-yl)acetate], the “isoTOP-ABPP reactivity ratio at lysine Q13033_K755” value in assay [1] is 1.0.
With `CCn1cc(C(=O)Oc2c(F)c(F)c(F)c(F)c2F)c(=O)c2ccc(C)nc21` [fragment 28, Pentafluorophenyl 1-ethyl-7-methyl-4-oxo-1,4-dihydro-1,8-naphthyridine-3-carboxylate], the “isoTOP-ABPP reactivity ratio at lysine Q13033_K755” value in assay [1] was found to be 0.9.
Take `O=C(CCc1cn(-c2ccccc2)nc1-c1ccccc1)Oc1ccc([N+](=O)[O-])cc1[N+](=O)[O-]` [fragment 29, 2,4-Dinitrophenyl 3-(1,3-diphenyl-1H-pyrazol-4-yl)propanoate]: the “isoTOP-ABPP reactivity ratio at lysine Q13033_K755” value in assay [1] was 1.1. Moreover, the “isoTOP-ABPP reactivity ratio at lysine P02545_K135” value in assay [2] worked out at 1.0.
For `O=C(Oc1ccc([N+](=O)[O-])cc1[N+](=O)[O-])C(c1ccccc1)c1ccccc1` [fragment 30, 2,4-Dinitrophenyl 2,2-diphenylacetate], in assay [1], the “isoTOP-ABPP reactivity ratio at lysine Q13033_K755” value is 2.0. Further, the “isoTOP-ABPP reactivity ratio at lysine P02545_K135” value in assay [2] was determined as 20.0.
Taken in the same sequence, the figures for `O=C(Oc1ccc([N+](=O)[O-])cc1[N+](=O)[O-])c1cc(C(F)(F)F)cc(C(F)(F)F)c1` [fragment 31, 2,4-Dinitrophenyl 3,5-bis(trifluoromethyl)benzoate] were 1.4 and 1.3.
As for `Cn1cc(CC(=O)Oc2ccc([N+](=O)[O-])cc2[N+](=O)[O-])c2ccccc21` [fragment 32, 2,4-Dinitrophenyl 2-(1-methyl-1H-indol-3-yl)acetate], the “isoTOP-ABPP reactivity ratio at lysine Q13033_K755” value in assay [1] was 2.7. The “isoTOP-ABPP reactivity ratio at lysine P02545_K135” value in assay [2] is 20.0.
Taken in the same sequence, the figures for `COc1cc(CCC(=O)Oc2ccc([N+](=O)[O-])cc2[N+](=O)[O-])cc(OC)c1OC` [fragment 33, 2,4-Dinitrophenyl 3-(3,4,5-trimethoxyphenyl)propanoate] were 1.8 and 0.7.
As for `O=C(Oc1ccc([N+](=O)[O-])cc1[N+](=O)[O-])C1CCN(C(=O)OCc2ccccc2)CC1` [fragment 34, 1-Benzyl 4-(2,4-dinitrophenyl) piperidine-1,4-dicarboxylate], the “isoTOP-ABPP ratio (R) at liganded lysine Q13033_K755” value in assay [1] was 3.7. The “isoTOP-ABPP ratio (R) at liganded lysine P02545_K135” value in assay [2] turned out to be 1.2.
As for `O=C(Oc1ccc([N+](=O)[O-])cc1[N+](=O)[O-])c1ccc2ccccc2n1` [fragment 35, 2,4-Dinitrophenyl quinoline-2-carboxylate], the “isoTOP-ABPP ratio (R) at liganded lysine Q13033_K755” value in assay [1] is 1.0. Also, the “isoTOP-ABPP ratio (R) at liganded lysine P02545_K135” value in assay [2] is listed as 0.7.
On to `O=C(CCc1coc2cc(F)ccc2c1=O)Oc1ccc([N+](=O)[O-])cc1[N+](=O)[O-]` [fragment 36, 2,4-Dinitrophenyl 3-(7-fluoro-4-oxo-4H-chromen-3-yl)propanoate], for which, in assay [1], the “isoTOP-ABPP ratio (R) at liganded lysine Q13033_K755” value was determined as 1.3. For the same molecule, the “isoTOP-ABPP ratio (R) at liganded lysine P02545_K135” value in assay [2] is listed as 0.8.
Consider `O=C(Oc1ccc([N+](=O)[O-])cc1[N+](=O)[O-])c1ccc(-c2ccccc2)cc1` [fragment 37, 2,4-Dinitrophenyl [1,1′-biphenyl]-4-carboxylate], for which the “isoTOP-ABPP ratio (R) at liganded lysine Q13033_K755” value in assay [1] turned out to be 0.8. For the same molecule, the “isoTOP-ABPP ratio (R) at liganded lysine P02545_K135” value in assay [2] was found to be 0.9.
With `O=C(CC12CC3CC(CC(C3)C1)C2)Oc1ccc([N+](=O)[O-])cc1[N+](=O)[O-]` [fragment 38, 2,4-Dinitrophenyl 2-(adamantan-1-yl)acetate], in assay [1], the “isoTOP-ABPP ratio (R) at liganded lysine Q13033_K755” value was found to be 0.9. Moreover, the “isoTOP-ABPP ratio (R) at liganded lysine P02545_K135” value in assay [2] is reported as 0.8.
For the molecule `O=C(Oc1ccc([N+](=O)[O-])cc1[N+](=O)[O-])c1ccc(Oc2ccccc2)cc1` [fragment 39, 2,4-Dinitrophenyl 4-phenoxybenzoate], in assay [1], the “isoTOP-ABPP ratio (R) at liganded lysine Q13033_K755” value was 0.9. The “isoTOP-ABPP ratio (R) at liganded lysine P02545_K135” value in assay [2] was 1.0.
Consider `O=C(Oc1ccc([N+](=O)[O-])cc1[N+](=O)[O-])c1ccccc1Nc1cccc(C(F)(F)F)c1` [fragment 40, 2,4-Dinitrophenyl 2-((3-(trifluoromethyl)phenyl)amino)benzoate], for which the “isoTOP-ABPP ratio (R) at liganded lysine Q13033_K755” value in assay [1] is recorded as 1.2. The “isoTOP-ABPP ratio (R) at liganded lysine P02545_K135” value in assay [2] was 1.2.
As for `CC(C)(C)OC(=O)NCCCC(=O)Oc1ccc([N+](=O)[O-])cc1[N+](=O)[O-]` [fragment 41, 2,4-Dinitrophenyl 4-((tert-butoxycarbonyl)amino)butanoate], the “isoTOP-ABPP ratio (R) at liganded lysine Q13033_K755” value in assay [1] was determined as 1.3. Moreover, in assay [2], the “isoTOP-ABPP ratio (R) at liganded lysine P02545_K135” value is recorded as 1.1.
In the case of `O=C(Oc1ccc([N+](=O)[O-])cc1[N+](=O)[O-])C(c1ccccc1)(c1ccccc1)c1ccccc1` [fragment 42, 2,4-Dinitrophenyl 2,2,2-triphenylacetate], in assay [1], the “isoTOP-ABPP ratio (R) at liganded lysine Q13033_K755” value was 0.9. The “isoTOP-ABPP ratio (R) at liganded lysine P02545_K135” value in assay [2] is 1.0.
In the case of `CC(=O)Oc1ccc([N+](=O)[O-])cc1[N+](=O)[O-]` [fragment 43, 2,4-Dinitrophenyl acetate], the “isoTOP-ABPP ratio (R) at liganded lysine P02545_K135” value in assay [2] was 20.0.
